Experiment [1] concerns P. aeruginosa (PA01). The experiment in a line: Pseudomonas PAO1 biofilm inhibition on lactam-based textiles by SEM. The class given is cell-based, Pseudomonas aeruginosa. As to conditions: for Bacteria (pixels): SEM image; for % bacteria coverage: bacteria pixels/total pixels of SEM image. The protocol: P. aeruginosa (PA01) was cultured overnight at 37° C. on TSA plates. Prior to use in tests, colonies were added to 20 mL of brain-heart infusion broth (BHI) containing 5 mL of glass beads and homogenised for 30 seconds. The optical density of the organism was measured and adjusted to give 1×10^8 cfu/mL. Inoculum (0.3 ml) was placed directly on modified and unmodified textiles in 24-well plates and incubated overnight in appropriate broth. Textiles were subsequently removed, washed in PBS and fixed for microscopy.
Fixative was prepared as described (Erlandsen, Kristich, Dunny, Wells, J. Histochem Cytochem, 2004), using 2% para-formaldehyde, 2% gluteraldehyde and 0.15M Sodium Cacodylate and 0.15% Alcian Blue, pH 7.4. The fixative was applied (enough to cover the biofilms) to the wells containing the biofilms on suitable substrates for 2 hours, this varied between 2 and 22 hours.
Following fixation, the fixative solution was removed and 0.15M Sodium Cacodylate buffer was added to the samples. The samples were then stored in the fridge until processing. Samples were washed 3×5 mins with […] fresh buffer to remove any remaining glutaraldehyde. Subsequently, a solution of 1% Osmium tetroxide (OsO4) was prepared 1:1 with 0.15M Sodium Cacodylate buffer, and added to the samples before incubating for 1 hour at room temperature. Samples were rinsed with distilled water 3×10 mins. 0.5% aqueous Uranyl acetate was then added to the samples before incubation in the dark for 30 mins at room temperature.
Samples were then dehydrated in an ascending ethanol series:
Samples were transferred from the original 24-well plate into a petri dish of hexamethyldisilazane (HMDS) for 5 mins, then to a second dish for 5 mins before being placed in a new 24-well plate lined with filter paper. The plate was then placed in a desiccator overnight to allow evaporation and drying or samples.
After sputter coating with gold-palladium in an argon filled chamber, samples were viewed under a JEOL JSM-6400 scanning electron microscope and images were assembled using the Photoshop software.
The SEM images were measured and the amount of pixels of textile and pixels of bacteria were determined. The % of bacteria coverage is the bacteria pixels/total pixels.

Experiment [2] concerns C. albicans 3153A. Nature of the experiment: Biofilm growth inhibition on lactam-based acrylic emulsion textiles by viability (AlamarBlue), Candida. The experiment is classed as cell-based, Candida albicans. As to conditions: acrylic emulsion coated with lactam, overnight, lower than 100 = reduction in biofilm growth. The protocol: (§1) P. aeruginosa (PA01), S. aureus (Newman's strain) were cultured overnight at 37° C. on TSA 5 plates. C. albicans […] was cultured for 2 days at 30° C. on MEA plates. Prior to use in tests, colonies of each organism were added to 20 mL of brain-heart infusion broth (BHI) containing 5 mL of glass beads and homogenised for 30 seconds. The optical density of each organism was measured and adjusted to give 1×10^7 cfu/mL. Inoculum (0.3 ml) was placed directly on acrylic emulsion coated cotton and PET textiles (with and without lactam) that have been previously positioned inside the wells of 6-well plates and incubated overnight in appropriate broth. Textiles were subsequently removed, washed in PBS and metabolism assessed by AlamarBlue on a plate reader. Data were presented as percentage of no-lactam control. A number lower than 100 indicates a reduction in microorganism biofilm growth for the lactam coated textile compared to uncoated textile.
In general terms: Resazurin is reduced to fluorescent resorufin, in cell work by metabolically active cells.

The subject of experiment [3] is P. aeruginosa GFP. The experiment in a line: Pseudomonas Aeruginosa-GFP biofilm growth curve inhibition on lactam-based textiles by fluorescence. The experiment is classed as cell-based. As to conditions: lactam in acrylic emulsion binder, printed, or encapsulated and padded on textile; compared to textile without the lactam. On the procedure:
A fluorescent strain of P. aeruginosa was used to allow growth inhibition to be measured by fluorescence. P. aeruginosa GFP was cultured for 2 days at 30° C. on MEA plates. Prior to use in tests, colonies were added to 20 mL of brain-heart infusion broth (BHI) containing 5 mL of glass beads and homogenised for 30 seconds. The optical density was measured and adjusted to give 1×10^8 cfu/m. Subsequently, 0.5 mL of the strain in BHI broth was added to the wells of a 24 well plate containing the substrates. This was then placed in the plate reader and read every hour at […]. The experiment tested a control (textile without lactam coating, the sample (textile coated with lactam) and a positive control (chlorhexidine).

Experiment [4] concerns S. aureus (Newman's strain). The experiment in a line: Biofilm growth inhibition on lactam-based acrylic emulsion textiles by viability (AlamarBlue), Staphylococcus. The experiment is classed as cell-based, Staphylococcus aureus. As to conditions: acrylic emulsion coated with lactam, overnight, lower than 100 = reduction in biofilm growth. On the procedure: as §1
Experiment [5] deals with P. aeruginosa (PA01). The experiment in a line: Biofilm growth inhibition on lactam-based acrylic emulsion textiles by viability (AlamarBlue), Pseudomonas. The class given is cell-based, Pseudomonas aeruginosa. As to conditions: for Mean biofilm metabolism (AlamarBlue): acrylic emulsion coated with lactam, overnight, lower than 100 = reduction in biofilm growth. On the procedure:
as §1

Structures are written as SMILES.

In the case of `C=C1NC(=O)C=C1c1ccc(Cl)cc1` [lactam (488), 4-(4-chlorophenyl)-5-methylene-pyrrol-2-one], the “Bacteria (pixels)” value was 2,660 pixels in experiment [1] (polypropylene non-woven coated with lactam in acrylic emulsion, control textile 10,851); 23,381 pixels in experiment [1] (polypropylene non-woven printed with lactam in solvents, control textile 26,917); 1,806 pixels in experiment [1] (viscose non-woven padded with lactam in polyurea encaps, control textile 16,291). For the same compound, the “% bacteria coverage” value was determined as 10.1% in experiment [1] (polypropylene non-woven coated with lactam in acrylic emulsion, control textile 32.1%); 10.1% in experiment [1] (polypropylene non-woven coated with lactam in acrylic emulsion, control textile 32.1%, listed as lactam); 48.0% in experiment [1] (polypropylene non-woven printed with lactam in solvents, control textile 62.6%); 48.0% in experiment [1] (polypropylene non-woven printed with lactam in solvents, control textile 62.6%, listed as lactam); 8.7% in experiment [1] (viscose non-woven padded with lactam in polyurea encaps, control textile 47.8%); 8.7% in experiment [1] (viscose non-woven padded with lactam in polyurea encaps, control textile 47.8%, listed as lactam). For the same compound, the “Mean biofilm metabolism (AlamarBlue)” value in experiment [2] (Cotton) is on record as 84.69 percentage of no-lactam control; in experiment [2] (Polyethylene) it was 67.83 percentage of no-lactam control; in experiment [4] (Cotton), 33.35 percentage of no-lactam control; in experiment [4] (Polyethylene), 47.88 percentage of no-lactam control; in experiment [5] (Cotton), 54.89 percentage of no-lactam control; in experiment [5] (Polyethylene) it was 80.95 percentage of no-lactam control. Moreover, the “Pseudomonas Aeruginosa-GFP biofilm growth on the textile (fluorescence growth curve)” value in experiment [3] is listed as “reduced Pseudomonas Aeruginosa-GFP biofilm growth”. Also, the “biofilm growth compared to textile with no coating (in words)” value in experiment [5] (polyethylene and cotton coated with lactam) was “reduction in Pseudomonas Aeruginosa biofilm growth”.
`C=C1C(c2ccc(Cl)cc2)=CC(=O)N1CCC[N+](C)(C)C` [lactam (488) (cationic)]: the “Bacteria (pixels)” value in experiment [1] (fluorinated polypropylene non-woven coated with cationic lactam, control textile 30,880) is 15,864 pixels. Further, the “% bacteria coverage” value is reported as 36.6% in experiment [1] (fluorinated polypropylene non-woven coated with cationic lactam, control textile 78.0%) and 36.6% in experiment [1] (fluorinated polypropylene non-woven coated with cationic lactam, control textile 78.0%, listed as Cationic Lactam).

The values above are taken from patent US12460346B2, “Lactam coated textile” (Conopco, Inc., priority 2018, dated 2025).
